{"source": "patent US8765690B2", "about": "“Treatment of cancer with glufosfamide in patients not receiving insulin therapy” (Threshold Pharmaceuticals, Inc., priority 2007, dated 2014)", "key": {"[1]": {"test_system": "gemcitabine resistant metastatic pancreatic cancer", "assay": "Phase 3 clinical trial of glufosfamide versus best supportive care, overall survival", "format": "in vivo, human", "conditions": "for Actual overall survival: individual diabetic patient, named GLD given orally in combination with glufosfamide 4500 mg/m^2 over 6 hours once every 3 weeks; for relative risk for overall survival in Group 1 and Group 2 patients: glufosfamide vs BSC", "protocol": "Glufosfamide is a prodrug of an alkylating agent useful in the treatment of cancer. A multi-center, randomized, open-label phase 3 clinical trial was conducted to evaluate the safety and efficacy of glufosfamide in treating gemcitabine resistant metastatic pancreatic cancer as measured by overall survival compared to BSC (best supportive care). Three hundred and three patients were randomized to the trial: 148 patients were randomized to the glufosfamide arm (n=148, Group 1) and 155 to BSC (n=155, Group 2).\nPatients in Group 1 were administered glufosfamide for up to 42 weeks. Glufosfamide was administered intravenously over 6 hours once every 3 weeks at 4500 mg/m^2 for up to 14 doses.\nOne-quarter of the dose was infused over 30 minutes and the remainder over the following five and one-half hours.\nTo assess the efficacy of glufosfamide treatment, patients in Group 1 and Group 2 were not administered any medication known to have antitumor effects other than glufosfamide, e.g., the patients were not administered any other chemotherapy or systemic cytotoxic/cytostatic agents. However, other appropriate supportive measures and concomitant medications not known to have antitumor effects, such as analgesics, antibiotics, transfusions, hematopoietic colony-stimulating factors (as therapy but not as prophylaxis), erythropoietin, and megestrol acetate for appetite stimulation were administered when appropriate.\nTumor assessment was performed at baseline and once every 6 weeks for the first 24 weeks and then once every 9 weeks. The primary efficacy indicator was the overall survival in Group 1 compared to that in Group 2.\nSeven diabetic patients (Group 1A) having gemcitabine resistant pancreatic cancer were treated with glufosfamide for 2-11 cycles in combination with various glucose lowering drugs (GLDs) other than insulin (see Table 2 below). Glufosfamide was administered intravenously over 6 hours, once every 3 weeks, at 4500 mg/m^2. The GLD was administered orally, once every day or qd, […] prior to the first glufosfamide administration; except that, the GLD was administered to patient no. 6 three times daily or tid. […] Tumor assessment was performed at baseline and once every 6 weeks for the first 24 weeks and then once every 9 weeks. Efficacy outcomes were evaluated based on comparing the overall median survival in Group 1A with that in Group 2A. The median overall survival in the Group 1A patients was 418 days (95% CI; 85 days-643 days) compared to 84 days (95% CI; 45 days-102 days) for those in group 2A (FIG. 3)."}, "[2]": {"test_system": "MiaPaCa-2-RFP tumor", "assay": "Surgical orthotopic implantation MiaPaCa-2-RFP pancreatic tumor model in nude mice, survival", "format": "in vivo, NCr nu/nu mice", "protocol": "A total of sixty male NCr nu/nu mice, 5-6 weeks old, were used in the study. Original breeding pairs were purchased from Taconic, Germantown, N.Y. Test animals were bred and maintained in a HEPA filtered environment for the experiment. Cages, food and bedding were autoclaved. The animal diets were obtained from PMI Nutrition International Inc. (Brentwood, Mo.).\nRFP gene transduction of MiaPaCa-2 cells: For RFP gene transduction, 20% confluent MiaPaCa-2 cells (ATCC, Rockville, Md.) were incubated with a 1:1 precipitated mixture of retroviral supernatants of PT67 cells and RPMI 1640 for 72 h. Fresh medium was replenished at this time. MiaPaCa-2 cells were harvested by trypsin-EDTA 72 h posttransduction and subcultured at a ratio of 1:15 into selective medium that contained 200 μg/ml G418. The level of G418 was increased to 1000 μg/ml stepwise. The brightest MiaPaCa-2 cell clones expressing RFP were selected, combined, and then amplified and transferred by conventional culture methods.\nSubcutaneous Xenografts: Tumor stocks were made by subcutaneously injecting MiaPaCa-2-RFP cells at a concentration of 5×10^6 cells/200 μl into the flank of nude mice. see e.g., Bouvet et al. Cancer Res., 2002, 62, 1534-40 incorporated herein by reference. The strong RFP expression of tumors grown in the subcutis of mice was confirmed before harvest. The tumor tissues harvested from s.c growth in nude mice were inspected, and any grossly necrotic or suspected necrotic or non-RFP tumor tissues were removed. Tumor tissues were subsequently cut into small fragments of approximately 2 mm^3. […]\nStatistical methods used in efficacy evaluation: Tumor volumes and tumor weights were compared using the Student's t-test with an α=0.05. Metastatic frequency of all groups were analyzed with Fisher's exact test with an α=0.05. Comparison of animal survival time between each treatment group and untreated control was analyzed using the Log-rank analysis with an α=0.05."}}, "note": "“And” between values parts separate entries of the source, which are not always exact repeats. Equal entries are not always repeated. Structures can show the parent of a compound that is named as a salt.", "data": [{"compound": "COc1ccc(Cl)cc1C(=O)NCCc1ccc(S(=O)(=O)NC(=O)NC2CCCCC2)cc1", "note": "[Glibenclamide]", "values": [{"measurement": "Actual overall survival", "setting": "[1]", "result": "85 and 643"}]}, {"compound": "Cc1ccc(S(=O)(=O)NC(=O)NN2CC3CCCC3C2)cc1", "note": "(stereo not shown) [Gliclazide]", "values": [{"measurement": "Actual overall survival", "setting": "[1]", "result": "145 and 476+"}]}, {"compound": "CCC1=C(C)CN(C(=O)NCCc2ccc(S(=O)(=O)NC(=O)N[C@H]3CC[C@H](C)CC3)cc2)C1=O", "note": "[Glimepiride]", "values": [{"measurement": "Actual overall survival", "setting": "[1]", "result": 54}]}, {"compound": "Cc1cnc(C(=O)NCCc2ccc(S(=O)(=O)NC(=O)NC3CCCCC3)cc2)cn1", "note": "[Glipizide]", "values": [{"measurement": "Actual overall survival", "setting": "[1]", "result": 418}]}, {"compound": "CN(CCOc1ccc(CC2SC(=O)NC2=O)cc1)c1ccccn1", "note": "(stereo not shown) [Rosiglitazone maleate]", "values": [{"measurement": "Actual overall survival", "setting": "[1]", "result": 479}]}, {"compound": "O=P(NCCCl)(NCCCl)O[C@@H]1O[C@H](CO)[C@@H](O)[C@H](O)[C@H]1O", "note": "[glufosfamide, beta-D-glucosyl-ifosfamide mustard]", "values": [{"measurement": "median overall survival", "setting": "[1]; Group 1 (n=148), glufosfamide 4500 mg/m^2 i.v. over 6 hours once every 3 weeks, all randomized patients", "result": 105, "unit": "days"}, {"measurement": "median overall survival", "setting": "[1]; Group 1 patients (n=123) not administered insulin prior to first glufosfamide administration", "result": 115, "unit": "days"}, {"measurement": "relative risk for overall survival in Group 1 and Group 2 patients", "setting": "[1]; diabetic patients receiving glucose lowering drug other than insulin, p=0.020", "result": 0.24}, {"measurement": "relative risk for overall survival in Group 1 and Group 2 patients", "setting": "[1]; proportional hazards model stratified by KPS, all patients, p=0.187", "result": 0.848}, {"measurement": "relative risk for overall survival in Group 1 and Group 2 patients", "setting": "[1]; patients not administered insulin prior, p=0.048", "result": 0.761}, {"measurement": "benefit from the administration of glufosfamide", "setting": "[1]; patients receiving a glucose lowering drug other than insulin, compared with patients not receiving such drugs", "result": "more benefit"}, {"measurement": "benefit from the administration of glufosfamide", "setting": "[1]; patients receiving insulin", "result": "no benefit or less benefit"}, {"measurement": "median overall survival", "setting": "[1]; seven diabetic Group 1 patients (Group 1A) on glufosfamide plus a glucose lowering drug other than insulin, no prior insulin", "result": 418, "unit": "days"}, {"measurement": "median overall survival", "setting": "[2]; glufosfamide 50 mg/kg i.v. qd x 7 alone", "result": 26, "unit": "days"}, {"measurement": "median overall survival", "setting": "[2]; glufosfamide 50 mg/kg i.v. qd x 7 in combination with glimepiride 12 mg/kg p.o. qd x 14, log rank p<0.01", "result": 35, "unit": "days"}, {"measurement": "survival improvement compared to glufosfamide administered alone", "setting": "[2]; glufosfamide 50 mg/kg in combination with glimepiride 12 mg/kg, FIG. 4", "result": "more effective in extending survival"}]}]}
